Source: patent US20250090699A1, “FAP TARGETING CYCLIC PEPTIDES AND CONJUGATES THEREOF” (Novartis AG, priority 2023, published 2025)
Structures can show the parent of a compound that is named as a salt. Starred links: 1 amine or outer side, 2 acyl side, 3 side chain; linkers in the order of their positions; H or OH if unused. Non-standard residues stand in square brackets, D forms with d. Residues, ends and D or L forms follow the SMILES beside them. Groups on a side chain read outwards from the residue. *: point of attachment. X8 = O=C(O)CN1CCN(CC(=O)O)CCN(CC(=O)O)C(Cc2ccc(NC(=S)*)cc2)CN(CC(=O)O)CC1; F(4OEtNHRDOTAGA-Lu) = Phe with 4-O-ethyl-NH-DOTAGA, Lu complex; DOTA = O=C(O)CN1CCN(CC(=O)O)CCN(CC(=O)*)CCN(CC(=O)O)CC1; Phe(4-CH2NH2) = NCc1ccc(C[C@H](N)C(=O)O)cc1; Piperazinyl(4-CH2COOH) = O=C(O)CN1CCN(*)CC1; AEF = NCCOc1ccc(C[C@H](N)C(=O)O)cc1; X10 = O=C([C@H]1COCCN1[*:1])[*:2]; NMeCba = CN[C@@H](CC1CCC1)C(=O)O; NMeF = CN[C@@H](Cc1ccccc1)C(=O)O; Ahp(2) = CCCCC[C@H](N)C(=O)O; hSer = N[C@@H](CCO)C(=O)O; Nphe = O=C(O)CNCc1ccccc1; dNMeA = CN[C@H](C)C(=O)O; AEEA = NCCOCCOCC(=O)O; CO = O=C([*:1])[*:2]; Propyl = CCC*

Assays:
mouse FAP [1] = biological target: T1, mouse FAP (Mus musculus, UniProt P97321); assay: Enzymatic FAP competition assay (Z-Gly-Pro-AMC fluorescence), mouse FAP; format: biochemical; conditions: read-out: m. FAP, Enz., IC50
T1 construct: biotinylated His, Avi tag, mouse FAP (26-761, FAP-M82Q5); His; Avi tag (biotinylated); purchased AcroBiosystems FAP-M82Q5
T1 sequence (P97321 26-761): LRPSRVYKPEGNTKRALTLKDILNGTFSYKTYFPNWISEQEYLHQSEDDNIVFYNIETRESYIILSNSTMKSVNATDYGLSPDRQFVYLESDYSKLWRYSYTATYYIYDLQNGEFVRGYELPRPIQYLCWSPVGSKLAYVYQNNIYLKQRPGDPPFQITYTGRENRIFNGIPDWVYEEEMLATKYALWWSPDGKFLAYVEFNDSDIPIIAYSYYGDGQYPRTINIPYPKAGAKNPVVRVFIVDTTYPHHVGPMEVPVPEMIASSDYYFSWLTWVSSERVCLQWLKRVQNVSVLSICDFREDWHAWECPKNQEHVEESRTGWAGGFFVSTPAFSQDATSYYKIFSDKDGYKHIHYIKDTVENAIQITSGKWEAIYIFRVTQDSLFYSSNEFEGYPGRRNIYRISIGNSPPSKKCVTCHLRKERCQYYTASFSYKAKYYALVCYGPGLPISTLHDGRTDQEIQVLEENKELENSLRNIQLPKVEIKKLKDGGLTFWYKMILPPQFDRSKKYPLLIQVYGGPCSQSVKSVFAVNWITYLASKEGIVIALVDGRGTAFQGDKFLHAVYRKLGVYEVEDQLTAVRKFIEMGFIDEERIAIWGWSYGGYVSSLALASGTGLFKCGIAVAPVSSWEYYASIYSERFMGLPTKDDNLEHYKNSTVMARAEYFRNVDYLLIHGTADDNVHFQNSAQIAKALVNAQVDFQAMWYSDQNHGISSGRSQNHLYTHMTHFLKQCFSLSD
Summary of the method: (§1)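 Biotinylated His/Avi-tagged FAP ectodomain (human 26-760, mouse 26-761) at 0.01 nM, preincubated 24 h with peptides (14 concentrations, up to 1 μM) in pH 7.5 phosphate, 150 mM NaCl, 0.05% Tween20, 1% DMSO. Then 50 μM Z-Gly-Pro-AMC, 4 h at 22-24° C; AMC fluorescence (380/460 nm) gave IC50 from duplicate points.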

mouse FAP [2] = biological target: T1, mouse FAP; assay: Surface plasmon resonance (SPR) for peptide affinity, mouse FAP; format: binding
Summary of the method: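 Biotinylated His/Avi-tagged FAP ectodomains (human 26-760, mouse 26-761) captured or immobilized on Biacore sensor chips; peptides run at 25 °C in HBS-EP+ pH 7.6 with 2% DMSO, single-cycle kinetics, 8 concentrations. KD from 1:1 binding-model fit of sensorgrams.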

human FAP = biological target: T2, human FAP (Homo sapiens, UniProt Q12884); assay: Enzymatic FAP competition assay (Z-Gly-Pro-AMC fluorescence), human FAP; format: biochemical; conditions: read-out: h. FAP, Enz., IC50
T2 construct: the biotinylated His, Avi tag, human FAP (26-760, FAP-H82Q6); His; Avi tag (biotinylated); purchased AcroBiosystems FAP-H82Q6
T2 sequence (Q12884 26-760): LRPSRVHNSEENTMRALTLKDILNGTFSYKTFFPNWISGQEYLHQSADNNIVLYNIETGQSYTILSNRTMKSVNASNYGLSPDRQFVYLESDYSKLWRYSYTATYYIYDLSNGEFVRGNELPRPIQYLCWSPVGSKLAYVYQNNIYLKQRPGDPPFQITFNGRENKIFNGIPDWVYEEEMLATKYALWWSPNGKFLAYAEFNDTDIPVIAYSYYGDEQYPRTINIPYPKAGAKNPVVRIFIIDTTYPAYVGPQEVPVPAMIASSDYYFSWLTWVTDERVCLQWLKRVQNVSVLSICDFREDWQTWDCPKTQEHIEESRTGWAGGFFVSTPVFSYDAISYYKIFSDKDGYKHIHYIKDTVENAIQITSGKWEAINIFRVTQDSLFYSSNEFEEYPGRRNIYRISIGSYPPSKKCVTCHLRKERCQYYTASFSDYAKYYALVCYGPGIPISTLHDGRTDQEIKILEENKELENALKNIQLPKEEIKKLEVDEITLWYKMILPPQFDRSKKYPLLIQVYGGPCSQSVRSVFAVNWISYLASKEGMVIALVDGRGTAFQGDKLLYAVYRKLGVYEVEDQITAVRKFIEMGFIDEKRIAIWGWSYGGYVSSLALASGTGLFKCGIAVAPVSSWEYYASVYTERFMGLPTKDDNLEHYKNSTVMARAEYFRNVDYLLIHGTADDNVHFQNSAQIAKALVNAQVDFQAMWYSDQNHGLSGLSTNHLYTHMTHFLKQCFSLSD
Summary of the method: as §1

Compound | IC50 (mouse FAP [1]) [nM] | Kd (mouse FAP [2]) [nM] | IC50 (human FAP) [nM]
CCCCC[C@@H]1NC(=O)[C@H](Cc2ccc(O)cc2)NC(=O)[C@H](CC2CCC2)N(C)C(=O)CNC(=O)CNC(=O)[C@H]2CCCN2C(=O)[C@H](CC(=O)O)NC(=O)[C@H](Cc2ccc(O)cc2)NC(=O)CNC(=O)[C@H](Cc2c[nH]c3ccccc23)NC1=O [Example A62, Gly-Gly-NMecBuA-Tyr-Ahp-Trp-Gly-Tyr-Asp-D-Pro] (cyclo([Ahp(2)]WGYD[dP]GG[NMeCba]Y)) | 0.31 | 0.32 | 0.063
CCCOCC[C@@H]1NC(=O)[C@H](Cc2ccc(CNC(=O)COCCOCCNC(=S)Nc3ccc(CC4CN(CC(=O)O)CCN(CC(=O)O)CCN(CC(=O)O)CCN4CC(=O)O)cc3)cc2)NC(=O)[C@H](Cc2ccccc2)N(C)C(=O)CNC(=O)CNC(=O)[C@H]2CCCN2C(=O)[C@H](CC(=O)O)NC(=O)[C@H](CCCCNC(=O)N2CCN(CC(=O)O)CC2)NC(=O)CNC(=O)[C@H](Cc2c[nH]c3ccccc23)NC1=O (stereo partly drawn) [Example B35, Gly-Gly-NMePhe-F(4amPEG2NH-p-SCN-DOTA-hS(Pr)-Trp-Gly-K(COpipzaa)-Asp-D-Pro] (cyclo(D[dP]GG[NMeF][Phe(4-CH2NH2)]([AEEA-X8])[hSer](Propyl)WGK([CO-Piperazinyl(4-CH2COOH)]))) | 0.055 | 0.059 | 0.021
CCCCC[C@@H]1NC(=O)[C@H](Cc2ccc(OCCN)cc2)NC(=O)[C@H](Cc2ccccc2)N(C)C(=O)CNC(=O)[C@H](CCO)NC(=O)[C@H]2CCCN2C(=O)[C@H](CC(=O)O)NC(=O)[C@H](Cc2ccc(O)cc2)NC(=O)CNC(=O)[C@H](Cc2c[nH]c3ccccc23)NC1=O [Example A47, hSer-Gly-NMePhe-F(4OEtNH2)-Ahp-Trp-Gly-Tyr-Asp-D-Pro, TFA salt] (cyclo([AEF][Ahp(2)]WGYD[dP][hSer]G[NMeF])) | 0.6 | 0.48 | 0.181
Gly-Gly-NMePhe-F(4OEtNHRDOTAGA-Lu)-Ahp-Trp-Gly-Tyr-Asp-D-Pro (cyclo(GG[NMeF][F(4OEtNHRDOTAGA-Lu)][Ahp(2)]WGYD[dP]); also: Lu complex of DOTAGA) [Example C31] | 0.027 | < 0.01 | 0.007
CCCCC[C@@H]1NC(=O)[C@H](Cc2ccc(O)cc2)NC(=O)[C@H](Cc2ccccc2)N(C)C(=O)CNC(=O)[C@@H](CO)NC(=O)[C@H]2CCCN2C(=O)[C@H](CC(=O)O)NC(=O)[C@H](Cc2ccc(O)cc2)NC(=O)CNC(=O)[C@H](Cc2c[nH]c3ccccc23)NC1=O [Example A69, D-Ser-Gly-NMePhe-Tyr-Ahp-Trp-Gly-Tyr-Asp-D-Pro] (cyclo([Ahp(2)]WGYD[dP][dS]G[NMeF]Y)) | 0.47 | 0.222 | 0.121
CCCCCC[C@@H]1NC(=O)[C@H](Cc2ccc(CNC(=O)COCCOCCNC(=S)Nc3ccc(CC4CN(CC(=O)O)CCN(CC(=O)O)CCN(CC(=O)O)CCN4CC(=O)O)cc3)cc2)NC(=O)[C@H](Cc2ccccc2)N(C)C(=O)CNC(=O)CNC(=O)[C@H]2CCCN2C(=O)[C@H](CC(=O)O)NC(=O)[C@H](CCCCNC(=O)N2CCN(CC(=O)O)CC2)NC(=O)CNC(=O)[C@H](Cc2c[nH]c3ccccc23)NC1=O (stereo partly drawn) [Example B37, Gly-Gly-NMePhe-F(4amPEG2NH-p-SCN-DOTA-Aoc-Trp-Gly-K(COpipzaa)-Asp-D-Pro] | 0.042 | < 0.022 | 0.017
CCCCC[C@@H]1NC(=O)[C@H](Cc2ccc(O)cc2)NC(=O)[C@H](Cc2ccccc2)N(C)C(=O)CNC(=O)CNC(=O)[C@H]2CCCN2C(=O)[C@H](C)NC(=O)[C@H](Cc2ccc(O)cc2)NC(=O)CNC(=O)[C@H](Cc2c[nH]c3ccccc23)NC1=O [Example A56, Gly-Gly-NMePhe-Tyr-Ahp-Trp-Gly-Tyr-Ala-D-Pro] (cyclo(A[dP]GG[NMeF]Y[Ahp(2)]WGY)) | 31 | 32 | 4.2
CCCCC[C@@H]1NC(=O)[C@H](Cc2ccc(O)cc2)NC(=O)[C@H](Cc2ccccc2)N(C)C(=O)CNC(=O)CNC(=O)[C@@H](C)N(C)C(=O)[C@H](CC(=O)O)NC(=O)[C@H](Cc2ccc(O)cc2)NC(=O)CNC(=O)[C@H](Cc2c[nH]c3ccccc23)NC1=O [Example A65, Gly-Gly-NMePhe-Tyr-Ahp-Trp-Gly-Tyr-Asp-D-NMeA] (cyclo([Ahp(2)]WGYD[dNMeA]GG[NMeF]Y)) | 2.8 | 1.8 | 0.34
CCCCC[C@@H]1NC(=O)[C@H](Cc2ccc(OCCNC(=O)CN3CCN(CC(=O)O)CCN(CC(=O)O)CCN(CC(=O)O)CC3)cc2)NC(=O)[C@H](Cc2ccccc2)N(C)C(=O)CNC(=O)[C@H](CCO)NC(=O)[C@H]2CCCN2C(=O)[C@H](CC(=O)O)NC(=O)[C@H](Cc2ccc(O)cc2)NC(=O)CNC(=O)[C@H](Cc2c[nH]c3ccccc23)NC1=O [Example B26, hSer-Gly-NMePhe-F(4OEtNHDOTA)-Ahp-Trp-Gly-Tyr-Asp-D-Pro, TFA salt] (cyclo([hSer]G[NMeF][AEF](DOTA)[Ahp(2)]WGYD[dP])) | 0.117 | 0.105 | 0.027
CCCCC[C@@H]1NC(=O)[C@H](Cc2ccc(O)cc2)NC(=O)[C@H](Cc2ccccc2)N(C)C(=O)CNC(=O)CNC(=O)[C@H]2COCCN2C(=O)[C@H](CC(=O)O)NC(=O)[C@H](Cc2ccc(O)cc2)NC(=O)CNC(=O)[C@H](Cc2c[nH]c3ccccc23)NC1=O [Example A63, Gly-Gly-NMePhe-Tyr-Ahp-Trp-Gly-Tyr-Asp-Mor(3R-COOH)] (cyclo([Ahp(2)]WGYD[X10]GG[NMeF]Y)) | 55 | 20 | 15
CCCCC[C@@H]1NC(=O)[C@H](Cc2ccc(O)cc2)NC(=O)[C@H](Cc2ccccc2)N(C)C(=O)CNC(=O)CNC(=O)[C@H]2CCCN2C(=O)[C@H](CC(=O)O)NC(=O)CN(Cc2ccccc2)C(=O)CNC(=O)[C@H](Cc2c[nH]c3ccccc23)NC1=O [Example A74, Gly-Gly-NMePhe-Tyr-Ahp-Trp-Gly-NBnG-Asp-D-Pro] (cyclo(GG[NMeF]Y[Ahp(2)]WG[Nphe]D[dP])) | 3.3 | 4.6 | 1.4
CCCCC[C@@H]1NC(=O)[C@H](Cc2ccc(CNC(C)=O)cc2)NC(=O)[C@H](Cc2ccccc2)N(C)C(=O)CNC(=O)CNC(=O)[C@H]2CCCN2C(=O)[C@H](CC(=O)O)NC(=O)[C@H](Cc2ccc(O)cc2)NC(=O)CNC(=O)[C@H](Cc2c[nH]c3ccccc23)NC1=O [Example A28, Gly-Gly-NMePhe-F(4AmAc)-Ahp-Trp-Gly-Tyr-Asp-D-Pro] (cyclo(GG[NMeF][Phe(4-CH2NH2)](Ac)[Ahp(2)]WGYD[dP])) | 0.33 | 0.52 | 0.063
